Like-named read-outs stand apart in the source and are kept apart here.
System: rice blast fungus
Type: cell-based
Details: for Preventive value: 1,000 μl on oatmeal culture medium, 25° C. for 7 days, elongation length of hyphae vs without treatment

COc1nc(-c2ccc3cnccc3n2)nc(F)c1C(F)(F)F [Example 4, 6-fluoro-4-methoxy-2-(2-(1,6-naphthyridyl))-5-trifluoromethylpyrimidine]
control activity against rice blast fungus (conclusion from the results in Table 1): has a control activity against rice blast fungus | Preventive value (test solution concentration 1000 ppm): 76 | Preventive value (test solution concentration 2000 ppm): 100
